# According to PMC12040969, “Design, synthesis, in silico studies, and apoptotic antiproliferative activity of novel thiazole-2-acetamide derivatives as tubulin polymerization inhibitors” (Frontiers in Chemistry, 2025):
# How the values were obtained:
# [1] = Cell viability assay (MTT), normal cells; format: cell-based; details: human, MCF-10A normal mammary gland epithelial cells, four-day incubation
# Procedure: The impact of novel compounds 10a-o and 13a-e on cell viability was examined using the MCF-10A (human mammary gland epithelial) normal cell line. The MTT test was employed to assess the cell viability of the novel compounds after a four-day incubation with MCF-10A cells ([El-Sherief et al., 2019]; [Ramadan et al., 2020]).
# The effects of compounds 10a-o and 13a-e on cell viability were assessed using the human mammary gland epithelial normal cell line (MCF-10A). The MTT assay assessed the cell viability of compounds 10a-o and 13a-e following a four-day incubation with MCF-10A cells ([El-Sherief et al., 2019]; [Ramadan et al., 2020]). Check Supplementary Appendix A for additional information.
# 4.2. Biological evaluation
# 4.2.1 Cell Viability assay (MTT assay)
# MTT assay was performed to investigate the effect of the synthesized compounds on mammary epithelial cells (MCF-10A). The cells were propagated in medium consisting of Ham's F-12 medium/ Dulbecco's modified Eagle's medium (DMEM) (1:1) supplemented with 10% foetal calf serum, 2 mM glutamine, insulin (10 μg/mL), hydrocortisone (500 ng/mL) and epidermal growth factor (20 ng/mL). Trypsin ethylenediamine tetra acetic acid (EDTA) was used to passage the cells after every 2-3 days. 96-well flat-bottomed cell culture plates were used to seed the cells at a density of 10^4 cells mL-1. The medium was aspirated from all the wells of culture plates after 24 h followed by the addition of synthesized compounds (in 200 μL medium to yield a final concentration of 0.1% (v/v) dimethyl sulfoxide) into individual wells of the plates.
# Four wells were designated to a single compound. The plates were allowed to incubate at 37°C for 96 h. Afterwards, the medium was aspirated and 3-[4,5-dimethylthiazol-2-yl]-2,5-diphenyltetrazolium bromide (MTT) (0.4 mg/mL) in medium was added to each well and subsequently incubated for 3 h. The medium was aspirated and 150 μL dimethyl sulfoxide (DMSO) was added to each well. The plates were vortexed followed by the measurement of absorbance at 540 nm on a microplate reader. The results were presented as inhibition (%) of proliferation in contrast to controls comprising 0.1%
# prostatic - PC-3 = assay: Antiproliferative assay (MTT) PC-3; details: for IC50: read-out: Antiproliferative activity IC50 ± SEM (µM) PC-3, PC-3, MTT
# breast - MCF-7 = assay: Antiproliferative assay (MTT) MCF-7; details: for IC50: read-out: Antiproliferative activity IC50 ± SEM (µM) MCF-7, MCF-7, MTT
# colon - HCT-116 = assay: Antiproliferative assay (MTT) HCT-116; details: for IC50: read-out: Antiproliferative activity IC50 ± SEM (µM) HCT-116, HCT-116, MTT
# - MDAMB-231 = assay: Antiproliferative assay (MTT) MDAMB-231
# pancreatic - MDAMB-231 = assay: Antiproliferative assay (MTT) MDAMB-231; details: read-out: Antiproliferative activity IC50 ± SEM (µM) MDAMB-231; MDAMB-231, MTT
# [2] = tested on: four human cancer cell lines (HCT-116, PC-3, MCF-7, MDAMB-231); assay: Antiproliferative assay, mean of four cell lines (GI50); details: for IC50: Homo sapiens, read-out: GI50 (average IC50)
# tubulin = assay: Tubulin polymerization inhibition assay (Cytoskeleton kit);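 for all read-outs here: Cell-free tubulin polymerization read by fluorescent reporter enhancement over a 30 min reaction, with the compound-free kit control taken as 100% activity and inhibition relative to it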; details: for Tub. enzyme inhibition assay %inhibition: 30 min, codes 522-537 run; for Tub. enzyme inhibition assay K. Activity: control = 120, codes 522-537 run
structure (smiles),measurement,setting,value
"Cc1ccc(-c2csc(NC(=O)CSc3nc(C)c(C(=O)/C=C/c4ccc(F)cc4)s3)n2)cc1 [Compound 10m, (E)-2-((5-(3-(4-fluorophenyl)acryloyl)-4-methylthiazol-2-yl)thio)-N-(4-(p-tolyl)thiazol-2-yl)acetamide]","viability at 96 h, 50 µM",[1],87%
same,Average of Relative viability of cells (%),"prostatic - PC-3; PC-3, 1.56 µM",100%
same,Average of Relative viability of cells (%),"prostatic - PC-3; PC-3, 3.125 µM",98.5%
same,Average of Relative viability of cells (%),"prostatic - PC-3; PC-3, 6.25 µM",84.1%
same,Average of Relative viability of cells (%),"prostatic - PC-3; PC-3, 12.5 µM",70.2%
same,Average of Relative viability of cells (%),"prostatic - PC-3; PC-3, 25 µM",57.4%
same,Average of Relative viability of cells (%),"prostatic - PC-3; PC-3, 50 µM",46.7%
same,Average of Relative viability of cells (%),"prostatic - PC-3; PC-3, 100 µM",36.8%
same,IC50,prostatic - PC-3,43 ± 2.5 µM
same,Average of Relative viability of cells (%),"breast - MCF-7; MCF-7, 1.56 µM",100%
same,Average of Relative viability of cells (%),"breast - MCF-7; MCF-7, 3.125 µM",91.6%
same,Average of Relative viability of cells (%),"breast - MCF-7; MCF-7, 6.25 µM",72.7%
same,Average of Relative viability of cells (%),"breast - MCF-7; MCF-7, 12.5 µM",53.5%
same,Average of Relative viability of cells (%),"breast - MCF-7; MCF-7, 25 µM",37.2%
same,Average of Relative viability of cells (%),"breast - MCF-7; MCF-7, 50 µM",28.4%
same,Average of Relative viability of cells (%),"breast - MCF-7; MCF-7, 100 µM",22.3%
same,IC50,breast - MCF-7,18 ± 1.4 µM
same,Average of Relative viability of cells (%),"colon - HCT-116; HCT-116, 1.56 µM",100%
same,Average of Relative viability of cells (%),"colon - HCT-116; HCT-116, 3.125 µM",99.8%
same,Average of Relative viability of cells (%),"colon - HCT-116; HCT-116, 6.25 µM",87.4%
same,Average of Relative viability of cells (%),"colon - HCT-116; HCT-116, 12.5 µM",67.3%
same,Average of Relative viability of cells (%),"colon - HCT-116; HCT-116, 25 µM",54.1%
same,Average of Relative viability of cells (%),"colon - HCT-116; HCT-116, 50 µM",43.7%
same,Average of Relative viability of cells (%),"colon - HCT-116; HCT-116, 100 µM",28.4%
same,IC50,colon - HCT-116,35 ± 2.2 µM
same,Average of Relative viability of cells (%),"- MDAMB-231; MDAMB-231, 1.56 µM",100%
same,Average of Relative viability of cells (%),"- MDAMB-231; MDAMB-231, 3.125 µM",87.1%
same,Average of Relative viability of cells (%),"- MDAMB-231; MDAMB-231, 6.25 µM",68.5%
same,Average of Relative viability of cells (%),"- MDAMB-231; MDAMB-231, 12.5 µM",55.2%
same,Average of Relative viability of cells (%),"- MDAMB-231; MDAMB-231, 25 µM",43.7%
same,Average of Relative viability of cells (%),"- MDAMB-231; MDAMB-231, 50 µM",32.3%
same,Average of Relative viability of cells (%),"- MDAMB-231; MDAMB-231, 100 µM",24.8%
same,IC50,pancreatic - MDAMB-231,20 ± 1.6 µM
same,Reduced potency compared to doxorubicin (GI50),[2]; GI50 ratio,at least 2.5 fold
same,Reduced potency compared to sorafenib (GI50),[2]; GI50 ratio,≥ 1.5 fold
same,IC50,[2],29 µM
same,Tub. enzyme inhibition assay %inhibition,tubulin; conc 0.01 (unit not given),5.97%
same,Tub. enzyme inhibition assay K. Activity,tubulin; conc 0.01 (unit not given),112.84
same,Tub. enzyme inhibition assay %inhibition,tubulin; conc 0.1 (unit not given),16.8%
same,Tub. enzyme inhibition assay K. Activity,tubulin; conc 0.1 (unit not given),99.836
same,Tub. enzyme inhibition assay %inhibition,tubulin; conc 1 (unit not given),30%
same,Tub. enzyme inhibition assay K. Activity,tubulin; conc 1 (unit not given),84.045
same,Tub. enzyme inhibition assay %inhibition,tubulin; conc 10 (unit not given),58%
same,Tub. enzyme inhibition assay K. Activity,tubulin; conc 10 (unit not given),50.371
same,Tub. enzyme inhibition assay %inhibition,tubulin; conc 100 (unit not given),81.2%
same,Tub. enzyme inhibition assay K. Activity,tubulin; conc 100 (unit not given),22.611
same,IC50,"tubulin; read-out: Tubulin inhibition IC50 ± SEM, triplicate for each tested concentration",7.92 ± 0.29 µM
same,Tub. (IC50) IC50±SD,"tubulin; supplement raw data, lab codes",4.039 ± 0.15 µg/mL
"CNC(=O)c1cc(Oc2ccc(NC(=O)Nc3ccc(Cl)c(C(F)(F)F)c3)cc2)ccn1 [Sorafenib, reference compound]",IC50,prostatic - PC-3,12 ± 0.9 µM
same,IC50,breast - MCF-7,7 ± 0.3 µM
same,IC50,colon - HCT-116,6 ± 0.3 µM
same,IC50,pancreatic - MDAMB-231,8 ± 0.4 µM
same,IC50,[2],8 µM
"COc1cccc2c1C(=O)c1c(O)c3c(c(O)c1C2=O)C[C@@](O)(C(=O)CO)C[C@@H]3O[C@H]1C[C@H](N)[C@H](O)[C@H](C)O1 [Doxorubicin, reference compound]",IC50,prostatic - PC-3,9 ± 0.6 µM
same,IC50,breast - MCF-7,4 ± 0.2 µM
same,IC50,colon - HCT-116,5 ± 0.3 µM
same,IC50,pancreatic - MDAMB-231,3 ± 0.1 µM
same,IC50,[2],5 µM
